Assay results from ChEMBL document CHEMBL1201862, “PubChem BioAssay data set” (2004).
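48-hour exposure; five concentrations; linearly interpolated endpoints. At the GI50, growth is halved.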 Activity calls are given as the source filed them. Cut-off read from the data, not from the text of the source: active = GI50 up to about 1.1 µM and inactive = higher.

What was measured:
Assay in all cases: NCI-60 cell line screen, 48 h
KM12 = tested on: KM12
NCI/ADR-RES = tested on: NCI/ADR-RES
MDA-MB-435 = tested on: MDA-MB-435
SF-268 = tested on: SF-268
SR = tested on: SR
MCF7 = tested on: MCF7
HCT-116 = tested on: HCT-116
HOP-62 = tested on: HOP-62
NCI-H522 = tested on: NCI-H522
OVCAR-3 = tested on: OVCAR-3
LOX IMVI = tested on: LOX IMVI
SK-MEL-2 = tested on: SK-MEL-2
CAKI-1 = tested on: CAKI-1
UACC-257 = tested on: UACC-257
RPMI-8226 = tested on: RPMI-8226
MOLT-4 = tested on: MOLT-4
COLO 205 = tested on: COLO 205
OVCAR-5 = tested on: OVCAR-5
SW-620 = tested on: SW-620
A549 = tested on: A549

Measured: GI50

COC(=O)C1=C(OC(=O)c2ccccc2)C(C(=O)OC)[C@@]2(O)[C@@H](C(=O)OC)[C@H](C)C[C@@H]1[C@@H]2C(=O)OC (stereo not given in full)
inactive: KM12 28.4 µM | NCI/ADR-RES 19 µM | MDA-MB-435 25.3 µM | SF-268 47.8 µM | SR 21.5 µM | MCF7 29 µM | HCT-116 36 µM | HOP-62 33.1 µM | NCI-H522 13.2 µM | OVCAR-3 46.2 µM | LOX IMVI 32.1 µM | SK-MEL-2 58.2 µM | CAKI-1 42.2 µM | UACC-257 33.3 µM | RPMI-8226 19 µM | MOLT-4 46.1 µM | COLO 205 17.6 µM | OVCAR-5 47.2 µM | SW-620 28.6 µM | A549 19.5 µM

O=c1oc2ncccc2n1Cc1ccc([N+](=O)[O-])cc1
inactive: KM12 > 100 µM | NCI/ADR-RES > 100 µM | MDA-MB-435 > 100 µM | SF-268 > 100 µM | SR > 100 µM | MCF7 > 100 µM | HCT-116 68.2 µM | HOP-62 > 100 µM | NCI-H522 > 100 µM | OVCAR-3 > 100 µM | LOX IMVI > 100 µM | SK-MEL-2 > 100 µM | CAKI-1 > 100 µM | UACC-257 > 100 µM | RPMI-8226 > 100 µM | MOLT-4 > 100 µM | COLO 205 > 100 µM | OVCAR-5 > 100 µM | SW-620 > 100 µM | A549 > 100 µM

O=C(/C=C/c1ccc2ccccc2c1)NCc1ccc(C(=O)NCc2ccccc2)cc1
inactive: KM12 > 100 µM | NCI/ADR-RES > 100 µM | MDA-MB-435 > 100 µM | SF-268 36.5 µM | SR > 100 µM | MCF7 > 83.6 µM | HCT-116 > 100 µM | HOP-62 14.2 µM | NCI-H522 > 56.8 µM | OVCAR-3 > 80.5 µM | LOX IMVI > 100 µM | SK-MEL-2 > 100 µM | CAKI-1 28.3 µM | UACC-257 > 100 µM | RPMI-8226 > 93.8 µM | MOLT-4 > 66.7 µM | COLO 205 > 100 µM | OVCAR-5 > 100 µM | SW-620 > 100 µM | A549 65.5 µM

CC(=O)c1cc(C)n2c1CS[C@@H]2c1ccccc1
inactive: KM12 54.6 µM | NCI/ADR-RES 50.1 µM | MDA-MB-435 27.3 µM | SF-268 90.2 µM | SR 27 µM | MCF7 35.9 µM | HCT-116 30.8 µM | HOP-62 83.9 µM | NCI-H522 30.2 µM | OVCAR-3 39.6 µM | LOX IMVI 26.3 µM | SK-MEL-2 98.9 µM | CAKI-1 70.5 µM | UACC-257 > 100 µM | RPMI-8226 7.85 µM | MOLT-4 25.2 µM | COLO 205 12.2 µM | OVCAR-5 > 100 µM | SW-620 33.7 µM | A549 53 µM
